Experimental data: patent US7662851B2, “Use of specific cyklolignans” (Axelar AB, priority 2001, dated 2010)
Like-named read-outs stand apart in the source and are kept apart here.

Key:
[1] = tested on: RD-ES Ewing's sarcoma cell line; assay: Cell viability (XTT), RD-ES; assay type: cell-based; conditions: Homo sapiens, 48 h, read-out: EC50 for cell viability
Procedure: (§1) Cell proliferation kit II (Roche Inc.) is based on colorimetric change of the yellow tetrazolium salt XTT in orange formazan dye by the respiratory chain of viable cells (Roehm, N W, et al., J Immunol Methods 142:257-265, 1991). Cells seeded at a concentration of 5000/well in 100 μl medium in a 96-well plate were treated with different drugs in the given concentration. After 24 or 48 h the cells were incubated, according to the manufacturer's protocol, with XTT labelling mixture. After 4 h the formazan dye is quantified using a scanning multiwell spectrophotometer with a 495-nm filter. The absorbance is directly correlated with the number of viable cells. The standard absorbance curve was drawn by means of untreated cells seeded at a concentration of from 1000 to 10 000 cells/well with an increasing rate of 1000 cells/well. All standards and experiments were performed in triplicates.
(§2) 12 different types of cell lines were seeded in 96-well plates (medium volume in a well was 100 μl), at a concentration of 10,000 cells/cm^2 in Minimal Essential Medium supplemented with fetal calf serum. When the cells had reached a concentration of 65,000 cells/cm^2, they were treated with different doses of podophyllotoxin and picropodophyllin for 48 h. Cell viability was then assayed (see above). […]

[2] = tested on: SK-MEL-28 melanoma cell line; assay: Cell viability (XTT), SK-MEL-28; assay type: cell-based
Procedure: as §1, §2

[3] = molecular target: IGF-1R (Homo sapiens, UniProt P08069); assay: IGF-1R phosphorylation in HaCaT cells (psoriasis model); assay type: cell-based; parameters: expressed in transfected cells; host or cells: P6 cell line (murine fibroblasts overexpressing human IGF-1R); receptor captured on plates with an antibody to the beta subunit; conditions: 0.05 μM, 1 h, control 100
Sequence of IGF-1R (P08069 31-1367): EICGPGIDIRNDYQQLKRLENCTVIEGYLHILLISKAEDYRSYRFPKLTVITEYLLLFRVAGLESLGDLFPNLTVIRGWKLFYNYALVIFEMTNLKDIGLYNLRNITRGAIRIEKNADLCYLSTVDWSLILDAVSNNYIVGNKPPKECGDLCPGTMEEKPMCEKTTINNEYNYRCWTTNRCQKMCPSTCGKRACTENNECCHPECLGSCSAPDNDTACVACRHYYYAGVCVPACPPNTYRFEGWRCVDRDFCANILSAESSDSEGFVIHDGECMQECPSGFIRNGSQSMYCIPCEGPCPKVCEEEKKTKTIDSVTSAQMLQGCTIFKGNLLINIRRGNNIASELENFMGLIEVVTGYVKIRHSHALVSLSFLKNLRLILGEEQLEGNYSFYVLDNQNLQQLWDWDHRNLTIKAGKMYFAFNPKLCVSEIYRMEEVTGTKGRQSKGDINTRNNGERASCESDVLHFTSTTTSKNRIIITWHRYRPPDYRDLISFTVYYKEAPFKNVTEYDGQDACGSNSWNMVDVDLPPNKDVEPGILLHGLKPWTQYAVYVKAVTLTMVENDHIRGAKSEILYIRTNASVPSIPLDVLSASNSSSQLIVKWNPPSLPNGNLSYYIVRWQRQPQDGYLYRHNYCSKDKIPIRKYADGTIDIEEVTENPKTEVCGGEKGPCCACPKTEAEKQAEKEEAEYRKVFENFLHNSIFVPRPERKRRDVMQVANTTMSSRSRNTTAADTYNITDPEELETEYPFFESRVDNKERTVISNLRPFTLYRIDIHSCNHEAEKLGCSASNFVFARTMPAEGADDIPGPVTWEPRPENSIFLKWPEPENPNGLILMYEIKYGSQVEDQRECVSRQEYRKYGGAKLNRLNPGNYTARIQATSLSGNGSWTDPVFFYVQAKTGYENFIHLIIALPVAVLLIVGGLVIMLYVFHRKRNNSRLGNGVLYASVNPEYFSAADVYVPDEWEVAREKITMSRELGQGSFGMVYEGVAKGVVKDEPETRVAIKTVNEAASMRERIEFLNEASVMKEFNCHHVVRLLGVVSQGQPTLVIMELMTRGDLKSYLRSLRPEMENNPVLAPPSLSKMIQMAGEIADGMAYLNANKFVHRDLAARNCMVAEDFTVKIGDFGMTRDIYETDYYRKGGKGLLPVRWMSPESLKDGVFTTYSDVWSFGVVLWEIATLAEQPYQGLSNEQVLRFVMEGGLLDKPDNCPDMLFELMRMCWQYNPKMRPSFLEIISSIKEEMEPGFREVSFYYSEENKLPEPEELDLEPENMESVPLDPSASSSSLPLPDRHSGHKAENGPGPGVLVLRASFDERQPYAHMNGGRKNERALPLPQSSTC
Procedure: Keratinocytes (HaCaT cells) were provided by and tested in collaboration with Professor Mona Bäckdahl, Department of Dermatology, Karolinska Hospital, Stockholm, Sweden. The HaCaT cell line is a spontaneously immortalized human keratinocyte cell line (Boukamp P, et al., J Cell Biol 106: 761-771, 1988), which is frequently used as an experimental model for psoriasis (Wraight, C. J., et al. Nat Biotechnol 18: 521-526, 2000.) HaCaT cells were cultured in Dulbecco's Modified Eagle's Medium containing 10% fetal bovine serum, glutamine, benzylpenicillin and streptomycin.
Cells were cultured to subconfluency in 6-cm plates, and then fresh medium containing 10% FBS and the desired compounds were added for 1 h. The cells were then lyzed and subjected to immunoprecipitation using specific antibodies. […] After detection the films were scanned for quantification.
HaCaT cells, which are immortalized human keratinocytes and represent a model cell line for psoriasis, were seeded in 6-cm dishes or in 96-well plates (medium volume in a well was 100 μl), at a concentration of 7,000 cells/cm^2 in Dulbecco's Modified Eagle's Medium containing 10% fetal bovine serum. […] After 1 h incubation the cells in the 6-cm dishes were harvested for assay and quantification of IGF-1R phosphorylation as described in Experiment 1. […]

[4] = tested on: fibroblast growth factor receptor (FGFR); assay: Tyrosine phosphorylation of FGFR in intact FM55 melanoma cells; assay type: cell-based; conditions: 0.05 μM, 1 h
Procedure: Cells were cultured to subconfluency in 6-cm plates, and then fresh medium containing 10% FBS and the desired compounds were added for 1 h. The cells were then lyzed and subjected to immunoprecipitation using specific antibodies. Immunoprecipitates were resolved by sodium dodecyl sulphate polyacrylamide gel electrophoresis (SDS-PAGE) and transferred to nitro-cellulose membranes and incubated with anti-phosphotyrosine antibody. Antibodies to actin (in cell extract) or IGF-1R beta subunit were used as loading controls. After detection the films were scanned for quantification.
FM55 melanoma cells were cultured in the same way as described in Experiment 1. When reaching a density of 65,000 cells/cm^2 in the dishes, they were treated for 1 h with 0 (control) and 0.05 μM of picropodophyllin and podophyllotoxin, respectively. The cells were then isolated and subjected to immunoprecipitation of the IGF-1R, fibroblast growth factor receptor (FGFR), platelet-derived growth factor receptor (PDGFR), epidermal growth factor receptor (EGFR), insulin receptor (IR) and insulin substrate-1 (IRS-1) using antibodies to respective molecules. IRS-1 is a substrate of IGF-1R, and therefore its phosphorylation is dependent on phosphorylated IGF-1R. Gelelectrophoresis, Western blotting and quantification of the different signals were performed as described above.

[5] = tested on: P6 cells (fibroblasts with overexpressed IGF-1R); assay: Cell viability (XTT), P6; assay type: cell-based, murine; conditions: Mus musculus, Fibroblast, 48 h, read-out: EC50 for cell viability
Procedure: as §1, §2

[6] = tested on: FM55 melanoma cell line; assay: Cell viability (XTT), FM55; assay type: cell-based; conditions: read-out: EC50 for cell viability
Procedure: as §1, §2

[7] = tested on: PC-3 prostatic carcinoma cell line; assay: Cell viability (XTT), PC-3; assay type: cell-based; conditions: Homo sapiens, read-out: EC50 for cell viability
Procedure: as §1, §2

[8] = tested on: SK-MEL-5 melanoma cell line; assay: Cell viability (XTT), SK-MEL-5; assay type: cell-based
Procedure: as §1, §2

Work on `COc1cc([C@@H]2c3cc4c(cc3[C@H](O)[C@H]3COC(=O)[C@H]23)OCO4)cc(OC)c1OC` [Podophyllotoxin, podophyllotoxin] yielded an EC50 [1] of 100 nM, an EC50 ([2]; Homo sapiens, SK-MEL-28, 48 h, read-out: EC50 for cell viability) of 20 nM and an IGF-1R phosphorylation [3] of 45. For the same compound, the “Level of phosphorylation in intact cells, substrate FGFR” value [4] was 105 % OD, the EC50 [5] was 30 nM and the EC50 ([6]; 48 h) was 40 nM. The EC50 ([7]; 48 h) was 60 nM and the EC50 ([8]; Homo sapiens, SK-MEL-5, 48 h, read-out: EC50 for cell viability) was 20 nM.

`COc1cc([C@@H]2c3cc4c(cc3[C@H](O)[C@H]3COC(=O)[C@@H]23)OCO4)cc(OC)c1OC` [Picropodophyllin, picropodophyllin] was tested, and the EC50 [1] was 100 nM, the EC50 ([2]; Homo sapiens, SK-MEL-28, 48 h; read-out: EC50 for cell viability) was 30 nM and the IGF-1R phosphorylation [3] was 35. For the same compound, the “Level of phosphorylation in intact cells, substrate FGFR” value [4] was 100 % OD, the EC50 ([5]; P6 (fibroblasts with overexpressed IGF-1R)) was 20 nM and the EC50 ([6]; FM55, 48 h) was 70 nM. For the same compound, the EC50 ([7]; PC-3, 48 h) was 90 nM and the EC50 ([8]; Homo sapiens, SK-MEL-5, 48 h; read-out: EC50 for cell viability) was 50 nM.
